For 23 compounds, EC50, IC50 and CC50 results are on record in patent US11236087B2, “Highly active pyrazolo-piperidine substituted indole-2-carboxamides active against the hepatitis B virus (HBV)” (AiCuris GmbH & Co. KG, priority 2017, dated 2022).

For one data set, the system named is HBV. The data set can be described thus: Determination of HBV DNA from the supernatants of HepAD38 cells (anti-HBV activity). It is filed as cell-based, hepatitis B virus. Particulars: Hepatitis B virus, 144 h; HBV DNA in HepAD38 supernatant, day 6, qPCR; read-out: Cell Activity (EC50). In a few lines: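 Supernatant viral DNA was measured by LightCycler qPCR, calibrated with pCH-9/3091 plasmid, 6 days after tetracycline-free HepAD38 cultures received half-log serial compound dilutions; untreated and tetracycline-treated cells served as controls; EC50 was fitted by non-linear regression.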
Background: In qPCR the cycle at which signal appears reflects the starting amount.

For the next data set, the target named is T1, HBV core protein (UniProt P03146).
T1 construct: fused on or other part: BODIPY-FL maleimide label on the C-terminal Cys150
T1 sequence (P03146 whole entry, looked up, the tested form may be a part): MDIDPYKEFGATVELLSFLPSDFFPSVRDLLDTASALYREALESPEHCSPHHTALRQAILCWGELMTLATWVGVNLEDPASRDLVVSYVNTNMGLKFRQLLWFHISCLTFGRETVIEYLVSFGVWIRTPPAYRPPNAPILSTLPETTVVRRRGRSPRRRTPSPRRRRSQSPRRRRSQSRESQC
The data set can be described thus: Biochemical capsid assembly assay (fluorescence quenching). The settings on record: read-out: Assembly Activity (IC50); BODIPY-FL labelled core protein, 300 μM NaCl, read 6 min after start. On the set-up: species or system hepatitis B virus. The method in brief:
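Assembly-induced fluorescence quenching (477/525 nm) was measured 6 min after NaCl addition ([…]), against 2.5 M and 0 M NaCl controls. The labelled C150 core dimer (truncated at 149) at 1.0-2.0 μM in HEPES pH 7.5 was tested with eight half-log compound dilutions, top 100, 31.6 or 10 μM. EC50 was obtained by non-linear fit from triplicates run three times.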

Data set [1] is described as follows: Cell viability assay (AlamarBlue) in HepAD38 cells. Particulars: human. For orientation: Alamar Blue is a resazurin reagent that responds to reducing activity.

A value given as a limit tells only on which side of the number the result lay.

For `CN(CC1(O)CCC1)C(=O)c1n[nH]c2c1CN(C(=O)c1cc3ccccc3[nH]1)CC2` [Example 254, N-[(1-hydroxycyclobutyl)methyl]-5-(1H-indole-2-carbonyl)-N-methyl-1H,4H,5H,6H,7H-pyrazolo[4,3-c]pyridine-3-carboxamide], the EC50 in the data set on HBV is under 1 µM. Also, the IC50 on HBV core protein was under 5 µM. The same compound showed a CC50 at 6 days in data set [1] of over 10 µM.

Take `CCNc1n[nH]c2c1CN(C(=O)c1cc3ccccc3[nH]1)CC2` [Example 80, N-ethyl-5-(1H-indole-2-carbonyl)-1H,4H,5H,6H,7H-pyrazolo[4,3-c]pyridin-3-amine]: the concentration for a half-maximal effect (EC50) in the data set with HBV lay within 1 to 25 µM. For the same compound, on HBV core protein, the IC50 is under 100 µM. In data set [1], this compound came in with a CC50 at 6 days of over 100 µM.

Turning to `O=C(NCCO)c1n[nH]c2c1CN(C(=O)c1cc3ccccc3[nH]1)CC2` [Example 107, N-(2-hydroxyethyl)-5-(1H-indole-2-carbonyl)-1H,4H,5H,6H,7H-pyrazolo[4,3-c]pyridine-3-carboxamide], the 50% effective concentration (EC50) with HBV lay within 1 to 25 µM. Besides, on HBV core protein, the concentration for half-maximal inhibition (IC50) is under 100 µM. Besides, the CC50 at 6 days in data set [1] was over 100 µM.

As to `C#CCN(C)C(=O)c1n[nH]c2c1CN(C(=O)c1cc3ccccc3[nH]1)CC2` [Example 312, 5-(1H-indole-2-carbonyl)-N-methyl-N-(prop-2-yn-1-yl)-1H,4H,5H,6H,7H-pyrazolo[4,3-c]pyridine-3-carboxamide], in the data set on HBV, the concentration for a half-maximal effect (EC50) is under 1 µM. Besides, the IC50 at HBV core protein was under 5 µM. Also, the CC50 at 6 days in data set [1] was over 10 µM.

As for `CCc1cccc2[nH]c(C(=O)N3CCc4[nH]nc(C(=O)N(C)C5(CO)CC5)c4C3)cc12` [Example 291, 5-(4-ethyl-1H-indole-2-carbonyl)-N-[1-(hydroxymethyl)cyclopropyl]-N-methyl-1H,4H,5H,6H,7H-pyrazolo[4,3-c]pyridine-3-carboxamide], in the data set on HBV, the EC50 was under 1 µM. In addition, the half-inhibitory concentration (IC50) on HBV core protein is under 5 µM. The compound also gave a CC50 at 6 days in data set [1] of over 10 µM.

`Cc1cccc2[nH]c(C(=O)N3CCc4n[nH]c(-c5cscn5)c4C3)cc12` [Example 23, 4-methyl-2-[3-(1,3-thiazol-4-yl)-2H,4H,5H,6H,7H-pyrazolo[4,3-c]pyridine-5-carbonyl]-1H-indole]: the EC50 in the data set with HBV is under 1 µM. Besides, at HBV core protein, the IC50 was under 5 µM. The CC50 at 6 days in data set [1] was over 10 µM.

Turning to `CN(CCO)C(=O)c1n[nH]c2c1CN(C(=O)c1cc3c(C(F)(F)F)cccc3[nH]1)CC2` [Example 59, N-(2-hydroxyethyl)-N-methyl-5-[4-(trifluoromethyl)-1H-indole-2-carbonyl]-1H,4H,5H,6H,7H-pyrazolo[4,3-c]pyridine-3-carboxamide], the EC50 in the data set on HBV was under 1 µM. On HBV core protein, the IC50 is under 5 µM. For the same compound, in data set [1], the CC50 at 6 days is over 32 µM.

As to `COCC1(N(C)C(=O)c2n[nH]c3c2CN(C(=O)c2cc4c(F)cc(F)cc4[nH]2)CC3)CC1` [Example 266, 5-(4,6-difluoro-1H-indole-2-carbonyl)-N-[1-(methoxymethyl)cyclopropyl]-N-methyl-1H,4H,5H,6H,7H-pyrazolo[4,3-c]pyridine-3-carboxamide], in the data set with HBV, the EC50 was under 1 µM. The half-inhibitory concentration (IC50) at HBV core protein was under 5 µM. In data set [1], this compound yielded a 50% cytotoxic concentration (CC50) at 6 days of over 10 µM.

Turning to `CN(CCC(=O)NS(=O)(=O)C1CC1)C(=O)c1[nH]nc2c1CN(C(=O)c1cc3ccccc3[nH]1)CC2` [Example 247, N-(cyclopropanesulfonyl)-3-{1-[5-(1H-indole-2-carbonyl)-2H,4H,5H,6H,7H-pyrazolo[4,3-c]pyridin-3-yl]-N-methylformamido}propanamide], the EC50 with HBV is under 100 µM. The IC50 at HBV core protein is under 100 µM. In data set [1], the CC50 at 6 days is over 10 µM.

On to `COCC1(N(C)C(=O)c2n[nH]c3c2CN(C(=O)c2cc4c(C)cc(F)cc4[nH]2)CC3)CC1` [Example 269, 5-(6-fluoro-4-methyl-1H-indole-2-carbonyl)-N-[1-(methoxymethyl)cyclopropyl]-N-methyl-1H,4H,5H,6H,7H-pyrazolo[4,3-c]pyridine-3-carboxamide], for which, in the data set on HBV, the EC50 was under 1 µM. Besides, at HBV core protein, the IC50 is under 5 µM. Also, the CC50 at 6 days in data set [1] is over 10 µM.

Take `CN(CCO)C(=O)c1n[nH]c2c1CN(C(=O)c1cc3c(F)ccc(F)c3[nH]1)CC2` [Example 53, 5-(4,7-difluoro-1H-indole-2-carbonyl)-N-(2-hydroxyethyl)-N-methyl-1H,4H,5H,6H,7H-pyrazolo[4,3-c]pyridine-3-carboxamide]: in the data set with HBV, the EC50 was under 1 µM. Also, the IC50 on HBV core protein is under 5 µM. The half-maximal cytotoxic concentration (CC50) at 6 days in data set [1] was over 100 µM.

Consider `Cc1noc(-c2n[nH]c3c2CN(C(=O)c2cc4ccccc4[nH]2)CC3)n1` [Example 116, 2-[3-(3-methyl-1,2,4-oxadiazol-5-yl)-1H,4H,5H,6H,7H-pyrazolo[4,3-c]pyridine-5-carbonyl]-1H-indole], for which the concentration giving a half-maximal response (EC50) in the data set with HBV is under 100 µM. Besides, at HBV core protein, the 50% inhibitory concentration (IC50) was 5 to 10 µM. Further, the CC50 at 6 days in data set [1] was over 100 µM.

With `CN(C(=O)c1n[nH]c2c1CN(C(=O)c1cc3ccccc3[nH]1)CC2)[C@@H]1CCCC[C@H]1O` (racemic) [Example 192, N-[(±)-2-hydroxycyclohexyl]-5-(1H-indole-2-carbonyl)-N-methyl-1H,4H,5H,6H,7H-pyrazolo[4,3-c]pyridine-3-carboxamide], the 50% effective concentration (EC50) in the data set with HBV was under 1 µM. Further, at HBV core protein, the IC50 fell in the range of 5 to 10 µM. The compound also registered a CC50 at 6 days in data set [1] of over 10 µM.

On to `COCC1(N(C)C(=O)c2n[nH]c3c2CN(C(=O)c2cc4c(F)c(F)cc(F)c4[nH]2)CC3)CC1` [Example 307, N-[1-(methoxymethyl)cyclopropyl]-N-methyl-5-(4,5,7-trifluoro-1H-indole-2-carbonyl)-1H,4H,5H,6H,7H-pyrazolo[4,3-c]pyridine-3-carboxamide], for which the EC50 in the data set on HBV was under 1 µM. Also, on HBV core protein, the IC50 was under 5 µM. The compound further gave a CC50 at 6 days in data set [1] of over 10 µM.

Regarding `CNC1(COC(=O)c2n[nH]c3c2CN(C(=O)c2cc4ccccc4[nH]2)CC3)CC1` [Example 32, [1-(methylamino)cyclopropyl]methyl 5-(1H-indole-2-carbonyl)-1H,4H,5H,6H,7H-pyrazolo[4,3-c]pyridine-3-carboxylate], the EC50 in the data set on HBV was under 1 µM. Moreover, the IC50 on HBV core protein is under 5 µM. The 50% cytotoxic concentration (CC50) at 6 days in data set [1] is over 100 µM.

Regarding `[2H]C([2H])([2H])OCC1(N(C)C(=O)c2n[nH]c3c2CN(C(=O)c2cc4ccccc4[nH]2)CC3)CC1` [Example 206, 5-(1H-indole-2-carbonyl)-N-{1-[(2H3)methoxymethyl]cyclopropyl}-N-methyl-1H,4H,5H,6H,7H-pyrazolo[4,3-c]pyridine-3-carboxamide], in the data set on HBV, the EC50 was under 1 µM. In addition, the half-maximal inhibitory concentration (IC50) on HBV core protein is under 5 µM. Besides, the CC50 at 6 days in data set [1] was over 10 µM.

On to `O=C(c1cc2c(C(F)(F)F)cccc2[nH]1)N1CCc2n[nH]c(-c3cscn3)c2C1` [Example 21, 2-[3-(1,3-thiazol-4-yl)-2H,4H,5H,6H,7H-pyrazolo[4,3-c]pyridine-5-carbonyl]-4-(trifluoromethyl)-1H-indole], for which the concentration for a half-maximal effect (EC50) with HBV was under 1 µM. For the same compound, on HBV core protein, the IC50 is under 100 µM. Further, the CC50 at 6 days in data set [1] was over 10 µM.

Take `CN(CCO)C(=O)c1n[nH]c2c1CN(C(=O)c1cc3cc(F)c(Cl)cc3[nH]1)CC2` [Example 6, 5-(6-chloro-5-fluoro-1H-indole-2-carbonyl)-N-(2-hydroxyethyl)-N-methyl-1H,4H,5H,6H,7H-pyrazolo[4,3-c]pyridine-3-carboxamide]: the EC50 in the data set on HBV is under 1 µM. The IC50 on HBV core protein is under 5 µM. This compound showed a CC50 at 6 days in data set [1] of over 10 µM.

As for `CN(CC(O)C1CC1)C(=O)c1n[nH]c2c1CN(C(=O)c1cc3ccccc3[nH]1)CC2` (stereo not drawn) [Example 256, N-(2-cyclopropyl-2-hydroxyethyl)-5-(1H-indole-2-carbonyl)-N-methyl-1H,4H,5H,6H,7H-pyrazolo[4,3-c]pyridine-3-carboxamide], the EC50 in the data set on HBV was under 1 µM. Moreover, the IC50 at HBV core protein was under 5 µM. Also, the 50% cytotoxic concentration (CC50) at 6 days in data set [1] is over 10 µM.

`COCC1(N(C)C(=O)c2n[nH]c3c2CN(C(=O)c2cc4cc(F)ccc4[nH]2)CC3)CC1` [Example 204, 5-(5-fluoro-1H-indole-2-carbonyl)-N-[1-(methoxymethyl)cyclopropyl]-N-methyl-1H,4H,5H,6H,7H-pyrazolo[4,3-c]pyridine-3-carboxamide]: the EC50 in the data set on HBV is under 1 µM. Further, the IC50 at HBV core protein is under 5 µM. This compound also gave a half-maximal cytotoxic concentration (CC50) at 6 days in data set [1] of over 10 µM.

`CS(=O)(=O)c1n[nH]c2c1CN(C(=O)c1cc3ccccc3[nH]1)CC2` [Example 211, 2-{3-methanesulfonyl-1H,4H,5H,6H,7H-pyrazolo[4,3-c]pyridine-5-carbonyl}-1H-indole]: the EC50 in the data set with HBV is under 1 µM. Besides, the IC50 on HBV core protein is under 5 µM. Moreover, the CC50 at 6 days in data set [1] is over 10 µM.

Regarding `Cc1cc(F)cc2[nH]c(C(=O)N3CCc4n[nH]c(C(=O)N(C)C5CC5)c4C3)cc12` [Example 327, N-cyclopropyl-5-(6-fluoro-4-methyl-1H-indole-2-carbonyl)-N-methyl-2H,4H,5H,6H,7H-pyrazolo[4,3-c]pyridine-3-carboxamide], the EC50 with HBV was under 1 µM. Besides, the IC50 on HBV core protein was under 5 µM. The same compound returned a CC50 at 6 days in data set [1] of over 10 µM.

For `CN(Cc1cn(C)nn1)C(=O)c1n[nH]c2c1CN(C(=O)c1cc3ccccc3[nH]1)CC2` [Example 316, 5-(1H-indole-2-carbonyl)-N-methyl-N-[(1-methyl-1H-1,2,3-triazol-4-yl)methyl]-1H,4H,5H,6H,7H-pyrazolo[4,3-c]pyridine-3-carboxamide], in the data set on HBV, the EC50 lay in the range of 1 to 25 µM. Further, the IC50 at HBV core protein was under 5 µM. The CC50 at 6 days in data set [1] is over 10 µM.

By EC50 is commonly meant the concentration at which the effect is half-maximal. Broadly, the IC50 is the concentration that gives 50% inhibition. In general, CC50 refers to the concentration giving 50% cytotoxicity. A high value points to better tolerance by the cells.
